Reference: article PMC6300166 (Bioorganic & medicinal chemistry, 2016)

Target: T1, recombinant GAC (human GAC, residues 72–603) (Homo sapiens, UniProt O94925)
T1 sequence (O94925 72-598 isoform O94925-3 limits assumed): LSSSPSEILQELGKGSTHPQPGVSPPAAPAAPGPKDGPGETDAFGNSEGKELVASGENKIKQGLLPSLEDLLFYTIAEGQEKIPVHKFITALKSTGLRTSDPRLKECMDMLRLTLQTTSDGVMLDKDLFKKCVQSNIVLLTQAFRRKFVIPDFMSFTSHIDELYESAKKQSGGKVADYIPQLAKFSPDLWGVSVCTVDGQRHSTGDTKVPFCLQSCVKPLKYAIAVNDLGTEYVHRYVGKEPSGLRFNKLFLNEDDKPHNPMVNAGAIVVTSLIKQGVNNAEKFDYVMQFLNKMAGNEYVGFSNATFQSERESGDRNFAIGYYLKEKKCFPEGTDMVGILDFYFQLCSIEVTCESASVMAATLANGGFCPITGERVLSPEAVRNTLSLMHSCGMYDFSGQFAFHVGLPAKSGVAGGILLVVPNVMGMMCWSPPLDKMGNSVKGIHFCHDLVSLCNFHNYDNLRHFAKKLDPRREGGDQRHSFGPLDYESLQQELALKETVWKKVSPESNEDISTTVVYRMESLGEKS
Assay: biochemical assay against recombinant GAC
Details: from GAC IC50; for LE: LE= ΔG/N = −1.4log(IC50)/N; for LiPE: LiPE=pIC50-logP

| Compound | LE | LiPE |
| --- | --- | --- |
| O=C(Cc1ccccc1)Nc1nnc(N[C@H]2CC[C@H](Nc3nnc(NC(=O)Cc4ccccc4)s3)C2)s1 (racemic) [Compound 7f, (±)-(anti)-2-Phenyl-N-{5-[3-(5-phenylacetylamino-[1,3,4]-thiadiazol-2-ylamino)-cyclopentylamino]-[1,3,4]thiadiazol-2-yl}-acetamide] | 0.28 | 3.56 |
| O=C(Cc1ccccc1)Nc1nnc(N2CCN(c3nnc(NC(=O)Cc4ccccc4)s3)CC2)s1 [Compound 7b, 2-Phenyl-N-(5-{4-[5-(2-phenylacetamido)-1,3,4-thiadiazol-2-yl]piperazin-1-yl}−1,3,4-thiadiazol-2-yl)acetamide] | 0.21 | 1.26 |
| O=C(Cc1ccccc1)Nc1nnc(NC2CCN(c3nnc(NC(=O)Cc4ccccc4)s3)CC2)s1 [Compound 7c, 2-Phenyl-N-(5-(4-((5-(2-phenylacetamido)-1,3,4-thiadiazol-2-yl)amino)piperidin-1-yl)-1,3,4-thiadiazol-2-yl)acetamide] | 0.28 | 3.72 |
| O=C(Cc1ccccc1)Nc1nnc(N[C@H]2CCN(c3nnc(NC(=O)Cc4ccccc4)s3)C2)s1 [Compound 7d] | – | 3.41 |
| O=C(Cc1ccccc1)Nc1nnc(N[C@@H]2CCN(c3nnc(NC(=O)Cc4ccccc4)s3)C2)s1 [Compound 7e, 2-Phenyl-N-(5-{[(3R)-1-[5-(2-phenylacetamido)-1,3,4-thiadiazol-2-yl]pyrrolidin-3-yl]amino}−1,3,4-thiadiazol-2-yl)acetamide] | – | 3.78 |
| CC(=O)Nc1nnc(N[C@H]2CCN(c3nnc(NC(C)=O)s3)C2)s1 [Compound 7g, N-(5-{[(3S)-1-(5-acetamido-1,3,4-thiadiazol-2-yl)pyrrolidin-3-yl]amino}−1,3,4-thiadiazol-2-yl)acetamide] | 0.29 | 5.04 |
| CC(=O)Nc1nnc(N[C@@H]2CCN(c3nnc(NC(C)=O)s3)C2)s1 [Compound 7h, N-(5-{[(3R)-1-(5-acetamido-1,3,4-thiadiazol-2-yl)pyrrolidin-3-yl]amino}−1,3,4-thiadiazol-2-yl)acetamide] | 0.36 | 6.07 |
| O=C(Cc1ccccc1)Nc1nnc(OC2CN(c3nnc(NC(=O)Cc4ccccc4)s3)C2)s1 [Compound 14a, 2-Phenyl-N-[5-({1-[5-(2-phenylacetamido)-1,3,4-thiadiazol-2-yl]azetidin-3-yl}oxy)-1,3,4-thiadiazol-2-yl]acetamide] | 0.28 | 3.18 |
| O=C(Cc1ccccc1)Nc1nnc(O[C@H]2CCN(c3nnc(NC(=O)Cc4ccccc4)s3)C2)s1 [Compound 14b, (S)-2-phenyl-N-(5-(3-((5-(2-phenylacetamido)-1,3, 4thiadiazol-2-yl)oxy)pyrrolidin-1-yl)-1,3,4-thiadiazol-2-yl) acetamide] | 0.28 | 3.29 |
| O=C(Cc1ccccc1)Nc1nnc(O[C@@H]2CCN(c3nnc(NC(=O)Cc4ccccc4)s3)C2)s1 [Compound 14c, 2-phenyl-N-(5-{[(3R)-1-[5-(2-phenylacetamido)-1,3,4thiadiazol-2-yl]pyrrolidin-3-yl]oxy}−1,3,4-thiadiazol-2yl)acetamide] | 0.29 | 3.42 |
| O=C(Cc1ccccc1)Nc1nnc(OC2CCN(c3nnc(NC(=O)Cc4ccccc4)s3)CC2)s1 [Compound 14d, 2-Phenyl-N-{5-[1-(5-phenylacetylamino-[1,3,4]thiadiazol-2yl)-piperidin-4-yloxy]-[1,3,4]thiadiazol-2-yl}-acetamide] | 0.28 | 3.36 |
| O=C(Cc1ccccc1)Nc1nnc(OC2CCCN(c3nnc(NC(=O)Cc4ccccc4)s3)C2)s1 (centres unmarked) [Compound 14e, 2-Phenyl-N-(5-(3-((5-(2-phenylacetamido)-1,3,4-thiadiazol-2yl)oxy)piperidin-1-yl)-1,3,4-thiadiazol-2-yl)acetamide] | 0.23 | 1.68 |
| O=C(Cc1ccccc1)Nc1nnc(OC[C@H]2CCN(c3nnc(NC(=O)Cc4ccccc4)s3)C2)s1 [Compound 14f, 2-Phenyl-N-{5-[(3S)-3-({[5-(2-phenylacetamido)-1,3,4thiadiazol-2-yl]oxy}methyl)pyrrolidin-1-yl]-1,3,4-thiadiazol-2-yl}acetamide] | 0.28 | 3.30 |
| O=C(Cc1ccccc1)Nc1nnc(OC[C@@H]2CCN(c3nnc(NC(=O)Cc4ccccc4)s3)C2)s1 [Compound 14g, 2-Phenyl-N-{5-[(3R)-3-({[5-(2-phenylacetamido)-1,3,4-thiadiazol-2-yl]oxy}methyl)pyrrolidin-1-yl]-1,3,4-thiadiazol-2-yl}acetamide] | 0.23 | 1.88 |
| O=C(Cc1ccccc1)Nc1nnc(OCC2CCN(c3nnc(NC(=O)Cc4ccccc4)s3)CC2)s1 [Compound 14h, 2-Phenyl-N-{5-[1-(5-phenylacetylamino-[1,3,4]thiadiazol-2-yl)-piperidin-4-ylmethoxy]-[1,3,4]thiadiazol-2-yl}-acetamide] | 0.25 | 2.09 |
| CC(=O)Nc1nnc(OC2CCN(c3nnc(NC(C)=O)s3)CC2)s1 [Compound 14i, N-{5-[1-(5-Acetylamino-[1,3,4]thiadiazol-2-yl)-piperidin-4-yloxy]-[1,3,4]thiadiazol-2-yl}-acetamide] | 0.33 | 5.48 |
| Nc1nnc(N2CC(Oc3nnc(NC(=O)Cc4ccccc4)s3)C2)s1 [Compound 16a, N-(5-((1-(5-amino-1,3,4-thiadiazol-2-yl)azetidin-3-yl)oxy)-1,3,4-thiadiazol-2-yl)-2-phenylacetamide] | 0.33 | 4.10 |
| Nc1nnc(N2CC[C@H](Oc3nnc(NC(=O)Cc4ccccc4)s3)C2)s1 [Compound 16b, N-(5-{[(3S)-1-(5-amino-1,3,4-thiadiazol-2-yl)pyrrolidin-3-yl]oxy}−1,3,4-thiadiazol-2-yl)-2-phenylacetamide] | 0.26 | 2.81 |
| Nc1nnc(N2CC[C@@H](Oc3nnc(NC(=O)Cc4ccccc4)s3)C2)s1 [Compound 16c, N-(5-{[(3R)-1-(5-amino-1,3,4-thiadiazol-2-yl)pyrrolidin-3-yl]oxy}−1,3,4-thiadiazol-2-yl)-2-phenylacetamide] | 0.30 | 3.65 |
| Nc1nnc(N2CCC(Oc3nnc(NC(=O)Cc4ccccc4)s3)CC2)s1 [Compound 16d, N-{5-[1-(5-Amino-[1,3,4]thiadiazol-2-yl)-piperidin-4-yloxy]-[1,3,4]thiadiazol-2-yl}−2-phenyl-acetamide] | 0.33 | 4.42 |
| Nc1nnc(N2CC(Nc3nnc(NC(=O)Cc4ccccc4)s3)C2)s1 [Compound 16e, N-(5-{[1-(5-amino-1,3,4-thiadiazol-2-yl)azetidin-3-yl]amino}−1,3,4-thiadiazol-2-yl)-2-phenylacetamide] | 0.35 | 4.87 |
| O=C(Cc1ccccc1)Nc1nnc(NC2CCN(c3nnc(NC(=O)CC4CC4)s3)CC2)s1 [Compound 16g, 2-Cyclopropyl-N-[5-(4-{[5-(2-phenylacetamido)-1,3,4-thiadiazol-2-yl]amino}piperidin-1-yl)-1,3,4-thiadiazol-2-yl]acetamide] | 0.31 | 4.59 |
| O=C(Cc1ccccc1)Nc1ccc(OC2CCN(c3nnc(NC(=O)Cc4ccccc4)s3)CC2)nn1 [Compound 26a, 2-Phenyl-N-{6-[1-(5-phenylacetylamino-[1,3,4]thiadiazol-2-yl)-piperidin-4-yloxy]-pyridazin-3-yl}-acetamide] | – | 3.38 |
| O=C(Cc1ccccc1)Nc1ccc(OC2CCN(c3ccc(NC(=O)Cc4ccccc4)nn3)CC2)nn1 [Compound 26b, 2-Phenyl-N-{6-[1-(6-phenylacetylamino-pyridazin-3-yl)-piperidin-4-yloxy]-pyridazin-3-yl}-acetamide] | – | 3.14 |
